Patent publication US12077503B2, “Substituted cyclic amides and their use as herbicides” (FMC CORPORATION, priority 2015, dated 2024)

Assays:
Format in all cases: in vivo
[1] = system: ducksalad (Heteranthera limosa); assay: Test B flooded paddy test; settings: Heteranthera limosa, 360 h, Flood, 250 g ai/ha; visually evaluated after 13 to 15 d; read-out: Plant response rating, Ducksalad (0 to 100 scale where 0 is no effect and 100 is complete control)
In short: (§1)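 2-leaf plants; pots flooded 3 cm over soil; cpd added to paddy water; depth held; greenhouse 13–15 d; visual rating vs controls, 0 = no effect, 100 = complete control.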

[2] = system: barnyardgrass (Echinochloa crus-galli); assay: Test B flooded paddy test; settings: Echinochloa crus-galli, 360 h, Flood, 250 g ai/ha; visually evaluated after 13 to 15 d; read-out: Plant response rating, Barnyardgrass (0 to 100 scale where 0 is no effect and 100 is complete control)
In short: as §1

[3] = system: rice (Oryra sativa); assay: Test B flooded paddy test; settings: Oryza sativa, 360 h, Flood, 250 g ai/ha; visually evaluated after 13 to 15 d; read-out: Plant response rating, Rice (0 to 100 scale where 0 is no effect and 100 is complete control)
In short: as §1

[4] = system: sedge, umbrella (small-flower umbrella sedge, Cyperus difformis); assay: Test B flooded paddy test; settings: Cyperus difformis, 360 h, Flood, 250 g ai/ha; visually evaluated after 13 to 15 d; read-out: Plant response rating, Sedge, Umbrella (0 to 100 scale where 0 is no effect and 100 is complete control)
In short: as §1

[5] = system: ryegrass, Italian (Italian ryegrass, Lolium multiflorum); assay: Test A postemergence; settings: Lolium multiflorum, post-emergence, 240 h, Postemergence; for pest or weed control at 31 g/ha: 31 g ai/ha, 0 is no effect, 100 is complete control, read-out: Ryegrass, Italian plant response rating (0 to 100 scale); for pest or weed control at 125 g/ha: 125 g ai/ha, visual injury after approx. 10 d, 0 to 100 scale, 0 no effect, 100 complete control, read-out: Plant response rating, Ryegrass, Italian
In short: (§2)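 In a loam soil and sand blend, planted seeds got a preemergence directed soil spray, and young plants at the one- to two-leaf stage, 2–10 cm high, got a postemergence application; ~10 d greenhouse hold; injury rated visually, 0 = none, 100 = complete control.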

[6] = system: ragweed (common ragweed, Ambrosia elatior); assay: Test A postemergence; settings: Ambrosia artemisiifolia, post-emergence, 240 h, Postemergence; for pest or weed control at 31 g/ha: 31 g ai/ha, 0 is no effect, 100 is complete control, read-out: Ragweed plant response rating (0 to 100 scale); for pest or weed control at 125 g/ha: 125 g ai/ha, visual injury after approx. 10 d, 0 to 100 scale, 0 no effect, 100 complete control, read-out: Plant response rating, Ragweed
In short: as §2

[7] = system: giant foxtail (Setaria faberii); assay: Test A postemergence; settings: Setaria faberi, post-emergence, 240 h, Postemergence; for pest or weed control at 31 g/ha: 31 g ai/ha, 0 is no effect, 100 is complete control, read-out: Foxtail, Giant plant response rating (0 to 100 scale); for pest or weed control at 125 g/ha: 125 g ai/ha, visual injury after approx. 10 d, 0 to 100 scale, 0 no effect, 100 complete control, read-out: Plant response rating, Foxtail, Giant
In short: as §2

[8] = system: blackgrass (Alopecurus myosuroides); assay: Test A postemergence; settings: Alopecurus myosuroides, post-emergence, 240 h, Postemergence; for pest or weed control at 31 g/ha: 31 g ai/ha, 0 is no effect, 100 is complete control, read-out: Blackgrass plant response rating (0 to 100 scale); for pest or weed control at 125 g/ha: 125 g ai/ha, visual injury after approx. 10 d, 0 to 100 scale, 0 no effect, 100 complete control, read-out: Plant response rating, Blackgrass
In short: as §2

[9] = system: barnyardgrass (Echinochloa crus-galli); assay: Test A postemergence; settings: Echinochloa crus-galli, post-emergence, 240 h, Postemergence; for pest or weed control at 31 g/ha: 31 g ai/ha, 0 is no effect, 100 is complete control, read-out: Barnyardgrass plant response rating (0 to 100 scale); for pest or weed control at 125 g/ha: 125 g ai/ha, visual injury after approx. 10 d, 0 to 100 scale, 0 no effect, 100 complete control, read-out: Plant response rating, Barnyardgrass
In short: as §2

[10] = system: Galium (catchweed bedstraw, Galium aparine); assay: Test A postemergence; settings: Galium, post-emergence, 240 h, Postemergence; for pest or weed control at 31 g/ha: 31 g ai/ha, 0 is no effect, 100 is complete control, read-out: Galium plant response rating (0 to 100 scale); for pest or weed control at 125 g/ha: 125 g ai/ha, visual injury after approx. 10 d, 0 to 100 scale, 0 no effect, 100 complete control, read-out: Plant response rating, Galium
In short: as §2

[11] = system: wheat (Triticum aestivum); assay: Test A postemergence; settings: Triticum aestivum, post-emergence, 240 h, Postemergence; for plant injury at 31 g/ha: 31 g ai/ha, 0 is no effect, 100 is complete control, read-out: Wheat plant response rating (0 to 100 scale); for plant injury at 125 g/ha: 125 g ai/ha, visual injury after approx. 10 d, 0 to 100 scale, 0 no effect, 100 complete control, read-out: Plant response rating, Wheat
In short: as §2

[12] = system: Kochia (Kochia scoparia); assay: Test A postemergence; settings: Bassia scoparia, post-emergence, 240 h, Postemergence; for pest or weed control at 31 g/ha: 31 g ai/ha, 0 is no effect, 100 is complete control, read-out: Kochia plant response rating (0 to 100 scale); for pest or weed control at 125 g/ha: 125 g ai/ha, visual injury after approx. 10 d, 0 to 100 scale, 0 no effect, 100 complete control, read-out: Plant response rating, Kochia
In short: as §2

[13] = system: pigweed (Amaranthus retroflexus); assay: Test A postemergence; settings: Amaranthus retroflexus, post-emergence, 240 h, Postemergence; for pest or weed control at 31 g/ha: 31 g ai/ha, 0 is no effect, 100 is complete control, read-out: Pigweed plant response rating (0 to 100 scale); for pest or weed control at 125 g/ha: 125 g ai/ha, visual injury after approx. 10 d, 0 to 100 scale, 0 no effect, 100 complete control, read-out: Plant response rating, Pigweed
In short: as §2

[14] = system: corn (Zea mays); assay: Test A postemergence; settings: Zea mays, post-emergence, 240 h, Postemergence; for plant injury at 31 g/ha: 31 g ai/ha, 0 is no effect, 100 is complete control, read-out: Corn plant response rating (0 to 100 scale); for Corn plant response rating (crop injury, 0 = no effect, 100 = complete kill) at 125 g/ha: 125 g ai/ha, visual injury after approx. 10 d, 0 to 100 scale, 100 complete control
In short: as §2

[15] = system: ryegrass, Italian (Italian ryegrass, Lolium multiflorum); assay: Test A preemergence; settings: Lolium multiflorum, pre-emergence, 240 h, Preemergence; for pest or weed control at 31 g/ha: 31 g ai/ha, 0 to 100 scale where 0 is no effect and 100 is complete control, read-out: Ryegrass, Italian plant response rating; for pest or weed control at 125 g/ha: 125 g ai/ha, 0 to 100 scale (0 no effect, 100 complete control), read-out: Plant response rating, Ryegrass, Italian
In short: as §2

[16] = system: ragweed (common ragweed, Ambrosia elatior); assay: Test A preemergence; settings: Ambrosia artemisiifolia, pre-emergence, 240 h, Preemergence; for pest or weed control at 31 g/ha: 31 g ai/ha, 0 to 100 scale where 0 is no effect and 100 is complete control, read-out: Ragweed plant response rating; for pest or weed control at 125 g/ha: 125 g ai/ha, 0 to 100 scale (0 no effect, 100 complete control), read-out: Plant response rating, Ragweed
In short: as §2

[17] = system: giant foxtail (Setaria faberii); assay: Test A preemergence; settings: Setaria faberi, pre-emergence, 240 h, Preemergence; for pest or weed control at 31 g/ha: 31 g ai/ha, 0 to 100 scale where 0 is no effect and 100 is complete control, read-out: Foxtail, Giant plant response rating; for pest or weed control at 125 g/ha: 125 g ai/ha, 0 to 100 scale (0 no effect, 100 complete control), read-out: Plant response rating, Foxtail, Giant
In short: as §2

[18] = system: barnyardgrass (Echinochloa crus-galli); assay: Test A preemergence; settings: Echinochloa crus-galli, pre-emergence, 240 h, Preemergence; for pest or weed control at 31 g/ha: 31 g ai/ha, 0 to 100 scale where 0 is no effect and 100 is complete control, read-out: Barnyardgrass plant response rating; for pest or weed control at 125 g/ha: 125 g ai/ha, 0 to 100 scale (0 no effect, 100 complete control), read-out: Plant response rating, Barnyardgrass
In short: as §2

[19] = system: Kochia (Kochia scoparia); assay: Test A preemergence; settings: Bassia scoparia, pre-emergence, 240 h, Preemergence; for pest or weed control at 31 g/ha: 31 g ai/ha, 0 to 100 scale where 0 is no effect and 100 is complete control, read-out: Kochia plant response rating; for pest or weed control at 125 g/ha: 125 g ai/ha, 0 to 100 scale (0 no effect, 100 complete control), read-out: Plant response rating, Kochia
In short: as §2

[20] = system: pigweed (Amaranthus retroflexus); assay: Test A preemergence; settings: Amaranthus retroflexus, pre-emergence, 240 h, Preemergence; for pest or weed control at 31 g/ha: 31 g ai/ha, 0 to 100 scale where 0 is no effect and 100 is complete control, read-out: Pigweed plant response rating; for pest or weed control at 125 g/ha: 125 g ai/ha, 0 to 100 scale (0 no effect, 100 complete control), read-out: Plant response rating, Pigweed

| SMILES | pest or weed control at 250 g/ha [1] [%] | pest or weed control at 250 g/ha [2] [%] | pest or weed control at 250 g/ha [3] [%] | pest or weed control at 250 g/ha [4] [%] | pest or weed control at 31 g/ha [5] [%] | pest or weed control at 125 g/ha [5] [%] | pest or weed control at 31 g/ha [6] [%] | pest or weed control at 125 g/ha [6] [%] | pest or weed control at 31 g/ha [7] [%] | pest or weed control at 125 g/ha [7] [%] | pest or weed control at 31 g/ha [8] [%] | pest or weed control at 125 g/ha [8] [%] | pest or weed control at 31 g/ha [9] [%] | pest or weed control at 125 g/ha [9] [%] | pest or weed control at 31 g/ha [10] [%] | pest or weed control at 125 g/ha [10] [%] | plant injury at 31 g/ha [11] [%] | plant injury at 125 g/ha [11] [%] | pest or weed control at 31 g/ha [12] [%] | pest or weed control at 125 g/ha [12] [%] | further results |
| --- | --- | --- | --- | --- | --- | --- | --- | --- | --- | --- | --- | --- | --- | --- | --- | --- | --- | --- | --- | --- | --- |
| CN1C[C@H](c2cccc(C(F)(F)F)c2)[C@@H](C(=O)Nc2cccnc2F)C1=O [Compound 1397] | 100 | 75 | 0 | 0 | 50 | 40 | 0 | 0 | 80 | 90 | 40 | 70 | 90 | 90 | 20 | 60 | 40 | 70 | 0 | 0 | pest or weed control at 31 g/ha [13]: 0%; pest or weed control at 125 g/ha [13]: 0%; plant injury at 31 g/ha [14]: 50%; Corn plant response rating (crop injury, 0 = no effect, 100 = complete kill) at 125 g/ha [14]: 90%; pest or weed control at 31 g/ha [15]: 50%; pest or weed control at 125 g/ha [15]: 70%; pest or weed control at 31 g/ha [16]: 0%; pest or weed control at 125 g/ha [16]: 0%; pest or weed control at 31 g/ha [17]: 100%; pest or weed control at 125 g/ha [17]: 100%; pest or weed control at 31 g/ha [18]: 100%; pest or weed control at 125 g/ha [18]: 100%; pest or weed control at 31 g/ha [19]: 0%; pest or weed control at 125 g/ha [19]: 60%; pest or weed control at 31 g/ha [20]: 0%; pest or weed control at 125 g/ha [20]: 0% |
| CN1C[C@H](c2ccc(C(F)(F)F)cc2)[C@@H](C(=O)Nc2cccc(F)n2)C1=O [Compound 1400] | 100 | 80 | 0 | 0 | 30 | 50 | 0 | 50 | 70 | 90 | 30 | 70 | 70 | 90 | 20 | 70 | 0 | 60 | 30 | 70 | pest or weed control at 31 g/ha [13]: 50%; pest or weed control at 125 g/ha [13]: 60%; plant injury at 31 g/ha [14]: 20%; Corn plant response rating (crop injury, 0 = no effect, 100 = complete kill) at 125 g/ha [14]: 40%; pest or weed control at 31 g/ha [15]: 0%; pest or weed control at 125 g/ha [15]: 30%; pest or weed control at 31 g/ha [16]: 0%; pest or weed control at 125 g/ha [16]: 70%; pest or weed control at 31 g/ha [17]: 90%; pest or weed control at 125 g/ha [17]: 90%; pest or weed control at 31 g/ha [18]: 90%; pest or weed control at 125 g/ha [18]: 90%; pest or weed control at 31 g/ha [19]: 60%; pest or weed control at 125 g/ha [19]: 70%; pest or weed control at 31 g/ha [20]: 80%; pest or weed control at 125 g/ha [20]: 80% |
